Test results as given in PubChem BioAssay (NCI).
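The compound was tested at five concentrations on cells cultured in 96-well plates, with a 48-hour exposure period. GI50 = concentration required for 50% inhibition of growth. Definition used: TGI = concentration required for complete inhibition of growth.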

Key:
Test in all cases: NCI anticancer screen, dose series, 48 h; in the data active means GI50 below about 0.43 µM; inactive means the rest
786-0 renal = test system: 786-0 renal
A498 renal = test system: A498 renal
A549 NSCLC = test system: A549 NSCLC
ACHN renal = test system: ACHN renal
BT-549 breast = test system: BT-549 breast
CAKI-1 renal = test system: CAKI-1 renal
CCRF-CEM leukemia = test system: CCRF-CEM leukemia
COLO 205 colon = test system: COLO 205 colon
DU-145 prostate = test system: DU-145 prostate
HCC-2998 colon = test system: HCC-2998 colon
HCT-116 colon = test system: HCT-116 colon
HCT-15 colon = test system: HCT-15 colon
HL-60(TB) leukemia = test system: HL-60(TB) leukemia
HOP-62 NSCLC = test system: HOP-62 NSCLC
HOP-92 NSCLC = test system: HOP-92 NSCLC
HS 578T breast = test system: HS 578T breast
HT29 colon = test system: HT29 colon
IGROV1 ovarian = test system: IGROV1 ovarian
K-562 leukemia = test system: K-562 leukemia
KM12 colon = test system: KM12 colon
LOX IMVI melanoma = test system: LOX IMVI melanoma
M14 melanoma = test system: M14 melanoma
MALME-3M melanoma = test system: MALME-3M melanoma
MCF7 breast = test system: MCF7 breast
MDA-MB-231 breast = test system: MDA-MB-231 breast
MDA-MB-435 = test system: MDA-MB-435
MOLT-4 leukemia = test system: MOLT-4 leukemia
NCI-H226 lung = test system: NCI-H226 lung
NCI-H23 lung = test system: NCI-H23 lung
NCI-H460 lung = test system: NCI-H460 lung
NCI-H522 lung = test system: NCI-H522 lung
NCI/ADR-RES ovarian = test system: NCI/ADR-RES ovarian
OVCAR-3 ovarian = test system: OVCAR-3 ovarian
OVCAR-4 ovarian = test system: OVCAR-4 ovarian
OVCAR-5 ovarian = test system: OVCAR-5 ovarian
OVCAR-8 ovarian = test system: OVCAR-8 ovarian
PC-3 prostate = test system: PC-3 prostate
RPMI-8226 leukemia = test system: RPMI-8226 leukemia
RXF 393 renal = test system: RXF 393 renal
SF-268 CNS = test system: SF-268 CNS
SF-295 CNS = test system: SF-295 CNS
SF-539 CNS = test system: SF-539 CNS
SK-MEL-2 melanoma = test system: SK-MEL-2 melanoma
SK-MEL-28 melanoma = test system: SK-MEL-28 melanoma
SK-MEL-5 melanoma = test system: SK-MEL-5 melanoma
SK-OV-3 ovarian = test system: SK-OV-3 ovarian
SN12C renal = test system: SN12C renal
SNB-19 CNS = test system: SNB-19 CNS
SNB-75 CNS = test system: SNB-75 CNS
SR leukemia = test system: SR leukemia
SW-620 colon = test system: SW-620 colon
T-47D breast = test system: T-47D breast
TK-10 renal = test system: TK-10 renal
U251 CNS = test system: U251 CNS
UACC-257 melanoma = test system: UACC-257 melanoma
UACC-62 melanoma = test system: UACC-62 melanoma
UO-31 renal = test system: UO-31 renal

O=C1NC(=NCc2ccccc2Br)S/C1=C\c1ccc2ncccc2c1
16.5 µM: TGI (NCI-H522 lung)
> 18.6 µM: TGI (SK-OV-3 ovarian)
8.39 µM: TGI (SR leukemia)
> 22.3 µM: TGI (BT-549 breast)
inactive: GI50 (786-0 renal) 9.43 µM | GI50 (A498 renal) 5.55 µM | GI50 (A549 NSCLC) 5.99 µM | GI50 (ACHN renal) 10.6 µM | GI50 (BT-549 breast) 6.32 µM | GI50 (CAKI-1 renal) 7.18 µM | GI50 (CCRF-CEM leukemia) 7.26 µM | GI50 (COLO 205 colon) 5.4 µM | GI50 (DU-145 prostate) 8.69 µM | GI50 (HCC-2998 colon) 24.3 µM | GI50 (HCT-116 colon) 2.74 µM | GI50 (HCT-15 colon) 4.36 µM | GI50 (HL-60(TB) leukemia) 7.96 µM | GI50 (HOP-62 NSCLC) 5.93 µM | GI50 (HOP-92 NSCLC) 6.89 µM | GI50 (HS 578T breast) 6.28 µM | GI50 (HT29 colon) 10.7 µM | GI50 (IGROV1 ovarian) 7.68 µM | GI50 (K-562 leukemia) 8.19 µM | GI50 (KM12 colon) 10.6 µM | GI50 (LOX IMVI melanoma) 4.7 µM | GI50 (M14 melanoma) 11.1 µM | GI50 (MALME-3M melanoma) > 15.3 µM | GI50 (MCF7 breast) 4.07 µM | GI50 (MDA-MB-231 breast) 15 µM | GI50 (MDA-MB-435) 5.62 µM | GI50 (MOLT-4 leukemia) 10 µM | GI50 (NCI-H226 lung) 8.06 µM | GI50 (NCI-H23 lung) 11.5 µM | GI50 (NCI-H460 lung) 6.1 µM | GI50 (NCI-H522 lung) 6.22 µM | GI50 (NCI/ADR-RES ovarian) 11.9 µM | GI50 (OVCAR-3 ovarian) 10 µM | GI50 (OVCAR-4 ovarian) 7.35 µM | GI50 (OVCAR-5 ovarian) > 25 µM | GI50 (OVCAR-8 ovarian) 9.14 µM | GI50 (PC-3 prostate) 15.2 µM | GI50 (RPMI-8226 leukemia) 8.74 µM | GI50 (RXF 393 renal) 8.07 µM | GI50 (SF-268 CNS) 7.83 µM | GI50 (SF-295 CNS) 8.03 µM | GI50 (SF-539 CNS) 5.84 µM | GI50 (SK-MEL-2 melanoma) 7.66 µM | GI50 (SK-MEL-28 melanoma) > 20.5 µM | GI50 (SK-MEL-5 melanoma) 10.4 µM | GI50 (SK-OV-3 ovarian) 8.11 µM | GI50 (SN12C renal) 9.31 µM | GI50 (SNB-19 CNS) 9.4 µM | GI50 (SNB-75 CNS) 3.82 µM | GI50 (SR leukemia) 1.03 µM | GI50 (SW-620 colon) 6.71 µM | GI50 (T-47D breast) 6.78 µM | GI50 (TK-10 renal) 14.8 µM | GI50 (U251 CNS) 4.77 µM | GI50 (UACC-257 melanoma) 17.8 µM | GI50 (UACC-62 melanoma) 11.8 µM | GI50 (UO-31 renal) 8.08 µM
24.4 µM: TGI (HS 578T breast)
> 21.2 µM: TGI (IGROV1 ovarian)
> 25 µM: TGI (786-0 renal) | TGI (A549 NSCLC) | TGI (ACHN renal) | TGI (CAKI-1 renal) | TGI (CCRF-CEM leukemia) | TGI (COLO 205 colon) | TGI (DU-145 prostate) | TGI (HCC-2998 colon) | TGI (HCT-116 colon) | TGI (HCT-15 colon) | TGI (HT29 colon) | TGI (K-562 leukemia) | TGI (KM12 colon) | TGI (LOX IMVI melanoma) | TGI (M14 melanoma) | TGI (MALME-3M melanoma) | TGI (MCF7 breast) | TGI (MDA-MB-231 breast) | TGI (MDA-MB-435) | TGI (MOLT-4 leukemia) | TGI (NCI-H226 lung) | TGI (NCI-H23 lung) | TGI (NCI-H460 lung) | TGI (NCI/ADR-RES ovarian) | TGI (OVCAR-3 ovarian) | TGI (OVCAR-4 ovarian) | TGI (OVCAR-5 ovarian) | TGI (OVCAR-8 ovarian) | TGI (PC-3 prostate) | TGI (RPMI-8226 leukemia) | TGI (RXF 393 renal) | TGI (SF-268 CNS) | TGI (SF-295 CNS) | TGI (SF-539 CNS) | TGI (SK-MEL-28 melanoma) | TGI (SK-MEL-5 melanoma) | TGI (SN12C renal) | TGI (SNB-19 CNS) | TGI (SW-620 colon) | TGI (TK-10 renal) | TGI (U251 CNS) | TGI (UACC-257 melanoma) | TGI (UACC-62 melanoma)
> 23.4 µM: TGI (HL-60(TB) leukemia)
> 23.7 µM: TGI (SNB-75 CNS)
19 µM: TGI (SK-MEL-2 melanoma)
24.5 µM: TGI (T-47D breast)
> 23.3 µM: TGI (HOP-92 NSCLC)
> 22 µM: TGI (UO-31 renal)
> 17.5 µM: TGI (HOP-62 NSCLC)
> 21.4 µM: TGI (A498 renal)

C/C(=C1\SC(=NCc2cccs2)NC1=O)c1ccc2ncccc2c1
> 25 µM: TGI (786-0 renal) | TGI (A498 renal) | TGI (A549 NSCLC) | TGI (ACHN renal) | TGI (BT-549 breast) | TGI (CAKI-1 renal) | TGI (CCRF-CEM leukemia) | TGI (COLO 205 colon) | TGI (DU-145 prostate) | TGI (HCC-2998 colon) | TGI (HCT-116 colon) | TGI (HCT-15 colon) | TGI (HL-60(TB) leukemia) | TGI (HOP-62 NSCLC) | TGI (HOP-92 NSCLC) | TGI (HS 578T breast) | TGI (HT29 colon) | TGI (IGROV1 ovarian) | TGI (K-562 leukemia) | TGI (KM12 colon) | TGI (LOX IMVI melanoma) | TGI (M14 melanoma) | TGI (MALME-3M melanoma) | TGI (MCF7 breast) | TGI (MDA-MB-231 breast) | TGI (MDA-MB-435) | TGI (MOLT-4 leukemia) | TGI (NCI-H226 lung) | TGI (NCI-H23 lung) | TGI (NCI-H460 lung) | TGI (NCI-H522 lung) | TGI (NCI/ADR-RES ovarian) | TGI (OVCAR-3 ovarian) | TGI (OVCAR-4 ovarian) | TGI (OVCAR-5 ovarian) | TGI (OVCAR-8 ovarian) | TGI (PC-3 prostate) | TGI (RPMI-8226 leukemia) | TGI (RXF 393 renal) | TGI (SF-268 CNS) | TGI (SF-295 CNS) | TGI (SF-539 CNS) | TGI (SK-MEL-2 melanoma) | TGI (SK-MEL-28 melanoma) | TGI (SK-MEL-5 melanoma) | TGI (SK-OV-3 ovarian) | TGI (SN12C renal) | TGI (SNB-19 CNS) | TGI (SW-620 colon) | TGI (T-47D breast) | TGI (TK-10 renal) | TGI (U251 CNS) | TGI (UACC-257 melanoma) | TGI (UACC-62 melanoma) | TGI (UO-31 renal)
> 23.3 µM: TGI (SNB-75 CNS)
inactive: GI50 (786-0 renal) > 23.1 µM | GI50 (A498 renal) 13.5 µM | GI50 (A549 NSCLC) 12.2 µM | GI50 (ACHN renal) 18.7 µM | GI50 (BT-549 breast) > 25 µM | GI50 (CAKI-1 renal) 11.1 µM | GI50 (CCRF-CEM leukemia) 10.2 µM | GI50 (COLO 205 colon) 12.4 µM | GI50 (DU-145 prostate) > 25 µM | GI50 (HCC-2998 colon) > 25 µM | GI50 (HCT-116 colon) 11 µM | GI50 (HCT-15 colon) 10.9 µM | GI50 (HL-60(TB) leukemia) 9.36 µM | GI50 (HOP-62 NSCLC) 21.8 µM | GI50 (HOP-92 NSCLC) 7.08 µM | GI50 (HS 578T breast) 9.15 µM | GI50 (HT29 colon) 10.9 µM | GI50 (IGROV1 ovarian) > 25 µM | GI50 (K-562 leukemia) 8.71 µM | GI50 (KM12 colon) 13.1 µM | GI50 (LOX IMVI melanoma) 13.8 µM | GI50 (M14 melanoma) 13.9 µM | GI50 (MALME-3M melanoma) > 25 µM | GI50 (MCF7 breast) 11.7 µM | GI50 (MDA-MB-231 breast) 7.24 µM | GI50 (MDA-MB-435) 7.55 µM | GI50 (MOLT-4 leukemia) 9.56 µM | GI50 (NCI-H226 lung) 21.5 µM | GI50 (NCI-H23 lung) 22.2 µM | GI50 (NCI-H460 lung) 9.27 µM | GI50 (NCI-H522 lung) 8.56 µM | GI50 (NCI/ADR-RES ovarian) 20.1 µM | GI50 (OVCAR-3 ovarian) 18.1 µM | GI50 (OVCAR-4 ovarian) 18.1 µM | GI50 (OVCAR-5 ovarian) > 25 µM | GI50 (OVCAR-8 ovarian) 14.7 µM | GI50 (PC-3 prostate) 12.7 µM | GI50 (RPMI-8226 leukemia) 13 µM | GI50 (RXF 393 renal) > 25 µM | GI50 (SF-268 CNS) 18 µM | GI50 (SF-295 CNS) 11.4 µM | GI50 (SF-539 CNS) 9.5 µM | GI50 (SK-MEL-2 melanoma) > 25 µM | GI50 (SK-MEL-28 melanoma) > 25 µM | GI50 (SK-MEL-5 melanoma) 8.21 µM | GI50 (SK-OV-3 ovarian) > 25 µM | GI50 (SN12C renal) 12.6 µM | GI50 (SNB-19 CNS) 13.6 µM | GI50 (SNB-75 CNS) 3.93 µM | GI50 (SR leukemia) 7.06 µM | GI50 (SW-620 colon) 10.1 µM | GI50 (T-47D breast) 15.1 µM | GI50 (TK-10 renal) > 25 µM | GI50 (U251 CNS) 11.7 µM | GI50 (UACC-257 melanoma) > 25 µM | GI50 (UACC-62 melanoma) > 19.3 µM | GI50 (UO-31 renal) 10.1 µM
> 21.7 µM: TGI (SR leukemia)
